A value given as a limit tells only on which side of the number the result lay.

The target in assay [1] is T1, Axl (Homo sapiens, UniProt P30530).
T1 sequence (P30530 26-894): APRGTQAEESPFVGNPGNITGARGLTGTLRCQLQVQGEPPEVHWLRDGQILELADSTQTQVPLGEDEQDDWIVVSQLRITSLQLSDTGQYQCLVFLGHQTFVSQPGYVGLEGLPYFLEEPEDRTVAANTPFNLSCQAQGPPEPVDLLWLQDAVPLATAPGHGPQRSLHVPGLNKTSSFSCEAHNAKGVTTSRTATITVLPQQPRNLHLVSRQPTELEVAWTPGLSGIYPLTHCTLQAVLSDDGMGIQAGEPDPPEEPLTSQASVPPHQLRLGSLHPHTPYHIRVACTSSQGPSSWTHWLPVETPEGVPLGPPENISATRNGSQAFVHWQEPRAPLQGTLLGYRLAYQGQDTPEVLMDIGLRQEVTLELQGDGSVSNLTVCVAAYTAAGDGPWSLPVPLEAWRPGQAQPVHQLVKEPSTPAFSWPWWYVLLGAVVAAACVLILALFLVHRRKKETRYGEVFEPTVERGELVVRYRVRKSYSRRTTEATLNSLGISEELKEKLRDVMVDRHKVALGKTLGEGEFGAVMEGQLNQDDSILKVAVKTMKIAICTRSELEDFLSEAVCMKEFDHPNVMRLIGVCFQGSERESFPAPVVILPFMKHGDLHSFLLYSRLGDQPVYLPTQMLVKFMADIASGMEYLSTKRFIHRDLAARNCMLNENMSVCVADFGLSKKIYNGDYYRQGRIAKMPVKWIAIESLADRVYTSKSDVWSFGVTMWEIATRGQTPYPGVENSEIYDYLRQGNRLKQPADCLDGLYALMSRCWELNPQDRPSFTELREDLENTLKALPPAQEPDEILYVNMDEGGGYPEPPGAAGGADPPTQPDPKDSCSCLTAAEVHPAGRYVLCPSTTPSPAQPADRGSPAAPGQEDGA
In words: Axl NanoBRET intracellular kinase assay (intracellular binding, Cell Binding). Further details: host or cells: HEK-293. The following applies: HEK-293 cells transfected with Axl-NanoLuc fusion vector; 0.35 μM K-5 NanoBRET tracer. The protocol: Axl NanoBRET™ intracellular kinase assay (Promega, N2540) was performed according to manufacturer's recommendation. In brief, HEK-293 cells are transiently transfected with Axl-NanoLuc fusion vector (Promega, NV1071), utilizing Fugene HD transfection reagent (Promega, E2311) a day before experiment following manufacturer's recommendation.
The day of the assay, the cells were collected and resuspended in Opti-MEM media (ThermoFisher, 31985070) at 2e5 cells/mL concentration. Testing compounds were serial diluted and dispensed into a white 384 well polystyrene plate at 200 nL in 100% DMSO. 40 μL of resuspended cells is then added per well for a final condition of 8K cells/well with 0.5% DMSO. After one-hour compound pre-incubation at 37° C. and 5% CO2, cells were further incubated with 0.35 μM K-5 NanoBRET tracer for two-hours at 37° C. and 5% CO2. […] of 3× substrate plus Inhibitor solution was prepared according to kits manual and added to the cells followed by a 30 second pulse centrifugation spin. The plate was then immediately read utilizing an Envision (Perkin Elmer) plate reader. The BRET signal is measured by taking the ratio of the emissions reading at 610 nm and 450 nm. Compound binding is based on the decrease BRET signal caused by the displacement of the K-5 tracer. […] IC50 value of compounds was determined by 4-parameter non-linear regression fitting of percent activity in GraphPad Prism software.
For orientation: In BRET a luciferase serves as donor, and the signal depends on an acceptor being close.

The target in assay [2] is T1, Axl. In words: HTRF KinEASE-TK biochemical potency assay, AXL. Also on record: purchased Invitrogen. The following applies: 5 nM AXL, 700 μM ATP, 800 nM TK Substrate-biotin. The protocol: Purified recombinant human AXL, TYRO3 and MER proteins were purchased from Invitrogen™. 10 nM AXL, 2 nM TYRO3 or MER were incubated with varying concentrations of compounds in 50 mM HEPES, pH 7.4, 10 mM MgCl2, 0.01% BSA, 1 mM DTT and 2% DMSO in a total volume of 20 μl in a 384-well microplate (Corning™ #3640) at RT for 1 h. The AXL, TYRO3 and MER enzymatic reaction was initiated by transferring 10 μl of enzyme and compound mixture into 10 μl of 1.6 μM TK Substrate-biotin (HTRF® KinEASE-TK kit, Cisbio) and 1400 μM ATP pre-incubated in 50 mM HEPES, pH 7.4, 10 mM MgCl2, 0.01% BSA, 1 mM DTT in a 384-well microplate (Corning™ #3640) at RT, giving the final reaction conditions: 5 nM AXL, 1 nM TYRO3 or MER, 800 nM TK Substrate-biotin and 700 μM ATP in 50 mM HEPES, pH 7.4, 10 mM MgCl2, 0.01% BSA, 1 mM DTT and 1% DMSO with varying concentrations of compounds. Following 2 h incubation at RT, the AXL, TYRO3 and MER enzymatic reaction was stopped by transfer of 10 μl of reaction into 10 μl of detection mix (400 nM Streptavidin-XL665, 200-fold dilution TK Antibody-Cryptate and detection buffer, HTRF® KinEASE-TK kit, Cisbio) in a white 384-well microplate (Perkin Elmer, OptiPlate 384). After 1 h incubation at RT, the plate was put into a plate reader (Evision) to read at 665/620 nm (acceptor/donor) for HTRF. The value of the DMSO blank (MIN inhibition=100% activity) was used as a negative control. The positive control was established by adding 5 μl of enzyme and DMSO mixture into 10 μl of detection mix followed by addition of 5 μl of TK Substrate-biotin and ATP mixture (MAX inhibition=0% activity). To calculate the percent activity, Equation 1 was used. Ratio 665/620 is the value at a given compound concentration: […]
A general note: TR-FRET usually uses a lanthanide donor and a delayed reading to cut background.

As for `CC(O)(c1ccc(-c2n[nH]c3ncc(-c4ccc5c(c4)CCN(C4CCCC4)CC5)cc23)cc1)C(F)(F)F` (stereo not shown) [Example 13, 2-{4-[5-(3-Cyclopentyl-2,3,4,5-tetrahydro-1H-3-benzazepin-7-yl)-1H-pyrazolo[3,4-b]pyridin-3-yl]phenyl}-1,1,1-trifluoropropan-2-ol], the half-maximal inhibitory concentration (IC50) (as a rule, the concentration needed to halve the response being measured) in assay [1] is 100 to 1000 nM.
Same read-out and setting: next, `CC(C)(O)c1ccc(-c2n[nH]c3ncc(-c4ccc5c(c4)CCN(C4CCCC4)CC5)cc23)cc1OC(F)(F)F` [Example 14, 2-{4-[5-(3-Cyclopentyl-2,3,4,5-tetrahydro-1H-3-benzazepin-7-yl)-1H-pyrazolo[3,4-b]pyridin-3-yl]-2-(trifluoromethoxy)phenyl}propan-2-ol]: above 1000 nM.
In assay [1], `CC(C)(O)c1ccc(-c2n[nH]c3ncc(-c4ccc5c(c4)CCN(C4CCCC4)CC5)c(F)c23)cc1Cl` [Example 15, 2-{2-Chloro-4-[5-(3-cyclopentyl-2,3,4,5-tetrahydro-1H-3-benzazepin-7-yl)-4-fluoro-1H-pyrazolo[3,4-b]pyridin-3-yl]phenyl}propan-2-ol] displayed a concentration for half-maximal inhibition (IC50) above 1000 nM.
Compound `CC(C)(O)c1ccc(-c2n[nH]c3ncc(-c4ccc5c(c4)CCN(C4CCCC4)CC5)cc23)cc1` [Example 18, 2-{4-[5-(3-Cyclopentyl-2,3,4,5-tetrahydro-1H-3-benzazepin-7-yl)-1H-pyrazolo[3,4-b]pyridin-3-yl]phenyl}propan-2-ol] registered an IC50 in assay [1] of 100 to 1000 nM.
Take `CS(=O)(=O)c1ccc(-c2n[nH]c3nc(N)c(-c4ccc5c(c4)CCN(C4CCCC4)CC5)cc23)cc1` [Example 19, 5-(3-Cyclopentyl-2,3,4,5-tetrahydro-1H-3-benzazepin-7-yl)-3-(4-methanesulfonylphenyl)-1H-pyrazolo[3,4-b]pyridin-6-amine]: the 50% inhibitory concentration (IC50) in assay [2] was 100 to 1000 nM; in assay [1] it was above 1000 nM.
The compound `CC(C)(O)c1ccc(-c2n[nH]c3ncc(-c4ccc5c(c4)CCN(C4CCCC4)C5)cc23)cc1Cl` [Example 28, 2-(2-Chloro-4-(5-(2-cyclopentyl-1,2,3,4-tetrahydroisoquinolin-6-yl)-1H-pyrazolo[3,4-b]pyridin-3-yl)phenyl)propan-2-ol] registered an IC50 in assay [1] above 1000 nM.
Still for that read-out and setting: next, `CC(C)(O)c1ccc(-c2n[nH]c3ncc(-c4ccc5c(c4)CN(C4CCCC4)CC5)cc23)cc1Cl` [Example 29, 2-(2-Chloro-4-(5-(2-cyclopentyl-1,2,3,4-tetrahydroisoquinolin-7-yl)-1H-pyrazolo[3,4-b]pyridin-3-yl)phenyl)propan-2-ol]: above 1000 nM.
For the compound `CC(C)(C#N)c1ccc(-c2n[nH]c3ncc(-c4ccc5c(c4)CCN(C4CCCC4)CC5)cc23)cc1` [Example 33, 2-(4-(5-(3-Cyclopentyl-2,3,4,5-tetrahydro-1H-benzo[d]azepin-7-yl)-1H-pyrazolo[3,4-b]pyridin-3-yl)phenyl)-2-methylpropanenitrile], the IC50 is 100 to 1000 nM in assay [2] and above 1000 nM in assay [1].
As to `CC(C)S(=O)(=O)c1ccc(-c2n[nH]c3ncc(-c4ccc5c(c4)CCC(C)(N4CCC[C@H]4C)CC5)cc23)cc1` (stereo partly drawn) [Example 43, 3-(4-(Isopropylsulfonyl)phenyl)-5-(7-methyl-7-((R)-2-methylpyrrolidin-1-yl)-6,7,8,9-tetrahydro-5H-benzo[7]annulen-2-yl)-1H-pyrazolo[3,4-b]pyridine], the IC50 in assay [2] and in assay [1] was below 100 nM throughout.
As to `CCS(=O)(=O)c1ccc(-c2n[nH]c3ncc(-c4ccc5c(c4)CCC(C)(N4CCC[C@H]4C)CC5)cc23)cc1` (stereo partly drawn) [Example 44, 3-(4-(Ethylsulfonyl)phenyl)-5-(7-methyl-7-((R)-2-methylpyrrolidin-1-yl)-6,7,8,9-tetrahydro-5H-benzo[7]annulen-2-yl)-1H-pyrazolo[3,4-b]pyridine], the 50% inhibitory concentration (IC50) in assay [2] and in assay [1] was below 100 nM throughout.
For the compound `CC(C)(O)c1ccc(-c2n[nH]c3ncc(-c4ccc5c(c4)CC[C@@H](N4CCCC4)CC5)cc23)c(Cl)c1` [Example 51, 2-(3-Chloro-4-{5-[(7S)-7-(pyrrolidin-1-yl)-6,7,8,9-tetrahydro-5H-benzo[7]annulen-2-yl]-1H-pyrazolo[3,4-b]pyridin-3-yl}phenyl)propan-2-ol], the IC50 in assay [2] and in assay [1] was 100 to 1000 nM each time.
`CNC(=O)c1ccc(-c2n[nH]c3ncc(-c4ccc5c(c4)CCC(C)(N4CCC[C@H]4C)CC5)cc23)cc1` (stereo partly drawn) [Example 71, N-Methyl-4-(5-{7-methyl-7-[(2R)-2-methylpyrrolidin-1-yl]-6,7,8,9-tetrahydro-5H-benzo[7]annulen-2-yl}-1H-pyrazolo[3,4-b]pyridin-3-yl)benzamide] yielded a 50% inhibitory concentration (IC50) in assay [1] below 100 nM.
With `Cc1cc(C(N)=O)ccc1-c1n[nH]c2ncc(-c3ccc4c(c3)CC[C@@H](N3CCCC3)CC4)cc12` [Example 86, (S)-3-Methyl-4-(5-(7-(pyrrolidin-1-yl)-6,7,8,9-tetrahydro-5H-benzo[7]annulen-2-yl)-1H-pyrazolo[3,4-b]pyridin-3-yl)benzamide], the IC50 was below 100 nM in assay [2] and 100 to 1000 nM in assay [1].
Take `CC(C)(O)c1ccc(-c2c[nH]c3ncc(-c4ccc5c(c4)CCC(N4CCCC4)CC5)cc23)cc1Cl` (stereo not shown) [Example 106, 2-(2-Chloro-4-{5-[7-(pyrrolidin-1-yl)-6,7,8,9-tetrahydro-5H-benzo[7]annulen-2-yl]-1H-pyrrolo[2,3-b]pyridin-3-yl}phenyl)propan-2-ol]: the concentration for half-maximal inhibition (IC50) is below 100 nM in assay [2] and 100 to 1000 nM in assay [1].
`C[C@@H]1CCCN1C1(C)CCc2ccc(-c3cnc4[nH]cc(C5CCN(S(C)(=O)=O)CC5)c4c3)cc2CC1` (stereo partly drawn) [Example 116, 1-Methanesulfonyl-4-(5-{7-methyl-7-[(2R)-2-methylpyrrolidin-1-yl]-6,7,8,9-tetrahydro-5H-benzo[7]annulen-2-yl}-1H-pyrrolo[2,3-b]pyridin-3-yl)piperidine] had an IC50 in assay [1] below 100 nM.
